Key:
[1] = tested on: histamine; assay: interaction with histamine, arterial pressure of anaesthetised dog; format: in vivo
Text: Finally, researchers looked for interaction between the benzamide according to the invention and histamine, in the arterial pressure of an anaesthetised dog and the isolated ileum of a guinea pig.

[2] = acute toxicity (lethal dose 50); conditions: in vivo, male mouse
[3] = tested on: adrenalin; assay: hypertensive response to adrenalin, anaesthetised dog; format: in vivo; conditions: for % reduction relative to control hypertension (R): adrenalin
Text: The effects of the benzamide on the cardiovascular system were studied in a dog anaesthetised with chloralose, with the following results: […]

[4] = tested on: migraine; assay: open investigation in migraine out-patients; format: in vivo; conditions: 150 mg per day orally in 3 doses
Procedure: (3) An open investigation covering 80 patients, who were followed in out-patient treatment with 150 mg of benzamide per day, given orally in 3 doses: […]

[5] = tested on: mouse; assay: analgesic action, pain caused by mechanical, chemical or heat stimulus; format: in vivo; conditions: single dose
Text: The analgesic action of the benzamide, in a single dose, is weak in respect of the pain caused in a mouse by a mechanical, chemical or heat stimulus.

## C=CCN1CCCC1CNC(=O)c1cc(S(=O)(=O)NC)c(N)cc1OC (centres unmarked) [Benzamide according to the invention, N-(1-allyl-2-pyrrolidinyl-methyl)2-methoxy-4-amino-5-methylsulfamoyl benzamide]
[1]
  anti-histamine properties: No anti-histamine properties were revealed
[2]; ip, intraperitoneal (basis)
  LD50: 184 mg/kg
[2]; po, per os (basis)
  LD50: 3600 mg/kg
[2]; sc, subcutaneous (basis)
  LD50: 204 mg/kg
[2]; intravenous (basis)
  LD50: 44 mg/kg
[3]; cumulative dose 0.5 mg/kg I.V.
  % reduction relative to control hypertension (R): 5%
[3]; cumulative dose 1 mg/kg I.V.
  % reduction relative to control hypertension (R): 3%
[3]; cumulative dose 2 mg/kg I.V.
  % reduction relative to control hypertension (R): 4%
[3]; cumulative dose 4 mg/kg I.V.
  % reduction relative to control hypertension (R): 21%
[3]; cumulative dose 8 mg/kg I.V.
  % reduction relative to control hypertension (R): 40%
[3]; cumulative dose 16 mg/kg I.V.
  % reduction relative to control hypertension (R): 68%
[3]; cumulative dose 32 mg/kg I.V.
  % reduction relative to control hypertension (R): 84%
[3]; anaesthetised dog
  hypertensive responses caused by adrenalin: reduces the hypertensive responses
[4]
  remission in particularly severe cases of "accompanied" migraines: the remission transformed the social life of the patient
[4]; 80 patients
  General tolerance of the treatment: very satisfactory
  success: 79%
[5]
  analgesic action: weak

Source: patent US4550179A, “N-(1-Allyl-2-pyrrolidinyl-methyl) 2-methoxy-4-amino-5-methylsulfamoyl benzamide” (Societe d'Etudes Scientifiques et Industrielles de l'Ile-de …, priority 1980, dated 1985)
